According to publication doi:10.1101/2021.02.17.431525v1 (biorxiv, 2021):

Target: GRB2 (growth factor receptor bound protein 2) (Homo sapiens, UniProt P62993)
Test: biochemical

- Kd: 1530 ± 110 nM
Structure (SMILES): CC(C)=CCC[C@](C)(O)[C@H]1CC[C@]2(C)[C@@H]1[C@H](O)C[C@@H]1[C@@]3(C)CC[C@H](O[C@@H]4O[C@H](CO)[C@@H](O)[C@H](O)[C@H]4O[C@@H]4O[C@H](CO)[C@@H](O)[C@H](O)[C@H]4O)C(C)(C)[C@@H]3CC[C@]12C [ginsenoside Rg3]
